By Tmax is commonly meant the time from dosing to the highest level. For orientation: clearance means a measure of how efficiently the substance is removed, as volume per time. Usually half-life stands for how long it takes for the measured level to halve. A low value points to rapid decline. The term Vd denotes the apparent volume that relates the amount in the body to the concentration in plasma or blood. Read a low Vd as confinement near the circulation.

From patent US5272177A, “Use of sebacic acid and derivatives thereof in enteral and parenteral nutrition and pharmaceutical compositions containing said compounds” (priority 1989, dated 1993) come the findings set out here.

Series [1] has as its system rabbits. As to conditions: rabbit, in vivo. From the text: (§1) Similarly, subacute and chronic toxicities were studied in 40 rats (20 male and 20 female) and 40 rabbits (20 male and 20 female) that had been administered sebacic acid formulated into pellets.
For series [2], the system named is rats. As to conditions: rat, in vivo.
Text: as §1

The conditions of series [3]: human, in vivo.
Series [4] is described as follows: clinical. As to conditions: human, in vivo, iv.
Series [5] deals with rabbits. As to conditions: rabbit, in vivo. This is another data set of the same source.
Series [6] in a line: Toxicity (general statement).
The subject of series [7] is rats. As to conditions: rat, in vivo. The source holds these as a separate data set.
Series [8] concerns healthy male volunteers. The series can be described thus: Respiratory and metabolic parameters by indirect calorimetry during infusion. The class given is in vivo. How it is done:
Respiratory and metabolic parameters were evaluated by indirect calorimetry from the beginning of the infusion for 210 minutes.

Series [9] can be described thus: clinical. As to conditions: human, in vivo, iv. This is another data set of the same source.
Series [10] deals with rats. As to conditions: rat, in vivo. The source holds these as a separate data set.
In series [11] the test system is Wistar rats. The series can be described thus: Acute toxicity test, oral and intraperitoneal, rats. The series is classed as in vivo. As to conditions: oral and intraperitoneal administration; Wistar rats (128).
Series [12] deals with New Zealand rabbits. The series can be described thus: Acute toxicity test, oral and intraperitoneal, rabbits. The series is classed as in vivo. As to conditions: oral and intraperitoneal administration; New Zealand rabbits (128).
Series [13] relates to rabbits. As to conditions: rabbit, in vivo. The source holds these as a separate data set.

For `O=C(O)CCCCCCCCC(=O)O` [sebacic acid], the “Biological parameters (haematic values, growing curves, histologic samples)” value in [1] is “No significant difference in biological parameters”. Further, in series [2], the “Biological parameters (haematic values, growing curves, histologic samples)” value was “No significant difference in biological parameters”. The Tubular secretion result in [3] is given as “a tubular secretion of sebacic acid had taken place”. The molecule also came in with a dose excreted in [4] below 16%. Moreover, in series [5], the Fetal development result is reported as “fetal development was absolutely normal”; the “Fetal toxicity, teratogenesis and neonatal toxicity” value is “did not allow any toxicity effect to be detected”; the Teratogenic effect result is recorded as “no teratogenic effect was ever noticed”. For the same molecule, in series [6], the Toxicity entry is “Neither sebacic acid nor its derivatives according to the present invention are toxic”. This molecule had an Energy production (human) of 6.64 kcal/g. The “Oxidation in the body” value (in vivo) was “completely oxidized in the body to CO2 and H2 O”. Also, in series [7], the Fetal development result is reported as “fetal development was absolutely normal”; the “Fetal toxicity, teratogenesis and neonatal toxicity” value is reported as “did not allow any toxicity effect to be detected”; the Teratogenic effect result is “no teratogenic effect was ever noticed”.

Turning to `O=C(O)CCCCCCCCC(=O)O` [sebacate], in series [3], the Tissue fixation entry was “good tissue fixation”. For the same molecule, the “Percent of calories derived from lipids” value in [8] (during and after the infusion, from -0.13±13.3) was found to be 52.1±26.2%. Also, the “CO2 production (VCO2)” value in series [8] (end of the infusion, basal 147.7±27.3) was 123.7±25.0 ml/min/m^2. In addition, the “Respiratory quotient (RQ)” value in series [8] (from 0.96±0.04, decreased significantly) came to 0.81±0.06. The “O2 consumption (VO2)” value in series [8] (time 180 min, time 0: 154.3±28.3) stood at 155.3±39.5 ml/min/m^2. In addition, in [9], the Tmax is 3 h, the clearance was 99.3 mL/min and the half-life is 0.34 ± 0.06 h. The same molecule returned a distribution volume (Vd) in [9] (Volume of the central compartment) of 2.79 ± 0.54 L. The molecule further displayed a Vd in series [9] (Volume of tissue compartment) of 3.72 ± 0.14 L.

In the case of `O=C([O-])CCCCCCCCC(=O)[O-].[Na+].[Na+]` [disodium sebacate], the “Acute or chronic toxic effects” value in series [10] and in series [13] was “do not exhibit particular acute or chronic toxic effects” each time. The LD50 result in [11] and in series [12] was “did not allow LD50 to be assessed” each time.

On to `O=C([O-])CCCCCCCCC(=O)[O-].[K+].[K+]` [potassium sebacate], for which the “Acute or chronic toxic effects” value in series [10] and in series [13] was “do not exhibit particular acute or chronic toxic effects” in each case.
